The values that follow come from PMC6318801 (European journal of medicinal chemistry, 2018).

Data set [1] in a line: Impact of human serum protein binding on inhibitory activity. It counts as cell-based. Particulars: Figure S4.
For data set [2], the target named is T1, mouse IDO2 expressed exogenously in T-Rex cells (Mus musculus, UniProt Q8R0V5).
T1 sequence (Q8R0V5 1-405): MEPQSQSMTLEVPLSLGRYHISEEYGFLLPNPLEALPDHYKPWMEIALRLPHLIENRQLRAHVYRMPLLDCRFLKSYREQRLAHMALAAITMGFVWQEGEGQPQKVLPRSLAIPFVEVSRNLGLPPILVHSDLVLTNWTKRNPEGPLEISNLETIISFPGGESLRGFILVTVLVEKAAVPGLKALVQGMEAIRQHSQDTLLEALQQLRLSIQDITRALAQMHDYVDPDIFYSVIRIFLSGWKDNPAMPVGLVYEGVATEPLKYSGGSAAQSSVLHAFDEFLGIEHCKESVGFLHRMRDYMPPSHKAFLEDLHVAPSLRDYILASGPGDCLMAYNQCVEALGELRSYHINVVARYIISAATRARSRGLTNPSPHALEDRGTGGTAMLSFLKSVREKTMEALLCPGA
The data set is described as follows: Cell-based IDO2 inhibition assay. Conditions: for Greater potency for IDO1 and TDO over IDO2 (cell-based): cell-based IC50 ratio.

The next data set deals with IDO1 (Homo sapiens, UniProt P14902). The data set is described as follows: Enzyme-based IDO1 inhibition assay. Particulars: for IDO1 % inhibition: isolated enzyme, 100 μM inhibitor.
In the next data set the target is TDO (Homo sapiens, UniProt P48775). Description: Enzyme-based TDO inhibition assay.
Data set [3] concerns the target human TDO expressed exogenously in T-Rex cells (Homo sapiens, UniProt P48775). Description: Cell-based TDO inhibition assay.
The target in data set [4] is human IDO1 expressed endogenously in HeLa cells (Homo sapiens, UniProt P14902). The data set is described as follows: Cell-based IDO1 inhibition assay.
The next data set concerns the target IDO2 (Homo sapiens, UniProt Q6ZQW0). Description: Enzyme-based IDO2 inhibition assay.
[5] abbreviates: read-out: TDO IC50 (cell-based), human TDO in T-Rex cells, racemic mixtures.
[6] abbreviates: read-out: IDO2 IC50 (cell-based), mouse IDO2 in T-Rex cells, racemic mixtures.
The mark [7] stands for this setting: read-out: IDO1 IC50 (cell-based), HeLa cells, racemic mixtures.
Where [8] appears, read: isolated enzyme, 100 μM inhibitor.

pIC50: −log10 of the molar value. Structures can show the parent of a compound that is named as a salt. Where two headings read alike, the source gives them in different places.

TDO, sequence (P48775 whole entry, species assumed): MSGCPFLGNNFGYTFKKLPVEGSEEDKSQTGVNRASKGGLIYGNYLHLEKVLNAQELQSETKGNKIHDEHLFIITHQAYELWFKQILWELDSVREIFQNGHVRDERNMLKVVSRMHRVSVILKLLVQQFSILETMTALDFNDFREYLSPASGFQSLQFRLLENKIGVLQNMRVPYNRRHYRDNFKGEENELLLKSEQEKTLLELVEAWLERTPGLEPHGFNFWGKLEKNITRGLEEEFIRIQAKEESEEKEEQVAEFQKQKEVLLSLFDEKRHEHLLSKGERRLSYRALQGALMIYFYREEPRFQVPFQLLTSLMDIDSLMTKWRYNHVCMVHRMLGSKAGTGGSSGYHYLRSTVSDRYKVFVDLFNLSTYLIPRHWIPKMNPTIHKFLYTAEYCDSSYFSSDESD
human TDO expressed exogenously in T-Rex cells, sequence (P48775 whole entry): as the sequence (P48775 whole entry, species assumed) above
IDO1, sequence (P14902 whole entry, species assumed): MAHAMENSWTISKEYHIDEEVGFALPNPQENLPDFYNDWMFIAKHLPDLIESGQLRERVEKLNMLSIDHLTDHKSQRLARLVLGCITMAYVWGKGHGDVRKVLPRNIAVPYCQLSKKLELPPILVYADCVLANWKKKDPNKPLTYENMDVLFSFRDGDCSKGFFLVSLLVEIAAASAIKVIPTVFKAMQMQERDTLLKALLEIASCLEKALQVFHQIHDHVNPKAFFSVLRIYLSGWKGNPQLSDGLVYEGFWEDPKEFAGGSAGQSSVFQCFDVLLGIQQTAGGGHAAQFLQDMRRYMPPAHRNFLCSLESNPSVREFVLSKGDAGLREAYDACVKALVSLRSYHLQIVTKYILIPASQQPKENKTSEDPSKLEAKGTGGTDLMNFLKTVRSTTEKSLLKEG
human IDO1 expressed endogenously in HeLa cells, sequence (P14902 whole entry): as the sequence (P14902 whole entry, species assumed) above
IDO2, sequence (Q6ZQW0 whole entry): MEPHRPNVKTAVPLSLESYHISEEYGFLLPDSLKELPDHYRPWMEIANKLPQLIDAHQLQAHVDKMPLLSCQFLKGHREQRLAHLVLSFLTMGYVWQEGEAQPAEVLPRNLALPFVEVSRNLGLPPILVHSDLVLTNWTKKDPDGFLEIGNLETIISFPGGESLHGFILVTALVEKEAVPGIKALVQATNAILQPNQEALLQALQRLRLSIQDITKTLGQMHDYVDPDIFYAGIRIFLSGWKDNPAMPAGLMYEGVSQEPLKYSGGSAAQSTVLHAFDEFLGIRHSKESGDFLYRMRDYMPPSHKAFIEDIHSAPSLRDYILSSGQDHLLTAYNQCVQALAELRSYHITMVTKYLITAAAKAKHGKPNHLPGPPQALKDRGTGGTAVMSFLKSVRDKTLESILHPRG

Take `Cl.NOC(c1ccccc1)c1ccc(Cl)cc1Cl` (centres unmarked) [Compound 6, O-(2,4-Dichlorophenylbenzyl)hydroxylamine hydrochloride]: in data set [1], the “Effect of human serum protein binding on inhibitory activity” value is listed as “substantial reduction in inhibitory activity”.
With `Cl.NOC(c1ccccc1)c1ccccc1F` (stereo not drawn) [Compound 16, O-(2-Fluoro-α-phenylbenzyl)hydroxylamine hydrochloride], the “Greater potency for IDO1 and TDO over IDO2 (cell-based)” value in data set [2] was “roughly 10 fold”.
On to `Cl.NOC(c1ccccc1)c1ccsc1` (centres unmarked) [Compound 21, O-(phenyl(thiophen-3-yl)methyl)hydroxylamine hydrochloride], for which the “Greater potency for IDO1 and TDO over IDO2 (cell-based)” value in data set [2] was “roughly 10 fold”.
The compound “O-(3-Trifluoromethyl-α-phenylbenzyl)hydroxylamine hydrochloride [Compound 26]” gave an IDO1 % inhibition at IDO1 of 18%. Further, the negative logarithm of the IC50 (pIC50) on TDO (read-out: TDO IC50, isolated enzyme, racemic mixtures) was 4.92; in data set [3] (setting [5]), 4.87; in data set [2] (setting [6]), 4.61; in data set [4] (setting [7]), 5.76.
On to `NOC(CCc1ccccc1)c1ccccc1` (centres unmarked) [Compound 17, O-(1,3-diphenylpropyl)hydroxylamine hydrochloride], for which the negative logarithm of the IC50 (pIC50) on IDO1 is 4.80; in data set [3], 4.30; in data set [2], 4.71; in data set [4], 4.83. The results for the inhibition at 100 µM on TDO (read-out: TDO % inhibition) and at IDO2 (read-out: IDO2 % inhibition) were 89.9% and 76%, respectively.
On to `NOC(c1ccccc1)c1ccc(O)cc1` (stereo not drawn) [Compound 25, O-(4-Hydroxy-α-phenyl)-benzyl hydroxylamine hydrochloride], for which, at IDO1 (read-out: IDO1 % inhibition, isolated enzyme, 200 μM inhibitor), the inhibition at 200 µM came to 18%.
The compound “O-[4-Chloro-α-(2’-methyl,4’-methoxyphenyl)benzenemethyl]hydroxylamine hydrochloride [Compound 23]” returned an IDO1 % inhibition on IDO1 of 85%. Besides, the TDO % inhibition at TDO (setting [8]) is recorded as 66%. Further, the pIC50 is 4.72 in data set [3] (setting [5]), 5.06 in data set [2] (setting [6]) and 5.75 in data set [4] (setting [7]).
Take “O-(2-Methoxy-α-phenylbenzyl)hydroxylamine hydrochloride [Compound 20]”: the IDO2 % inhibition at IDO2 (setting [8]) is 80.0%. The negative-log IC50 (pIC50) is 4.31 in data set [3] (setting [5]), 4.78 in data set [2] (setting [6]) and 5.95 in data set [4] (setting [7]).
In the case of `Cl.NOC(CCCC(=O)Nc1ccccc1)c1cccc(Cl)c1` (centres unmarked) [Compound 5, 5-(Aminooxy)-5-(3-chlorophenyl)-N-phenylpentanamide hydrochlorie], the “Selectivity for IDO1 over IDO2 and TDO (cell-based)” value in data set [4] (cell-based IC50 ratio) is recorded as “more than 20 fold”.
For the compound `Cl.NOC(c1ccccc1)c1cc(Cl)cc(Cl)c1` (stereo not drawn) [Compound 2, O-(3,5-Dichloro-α-phenylbenzyl)hydroxylamine hydrochloride], the “Effect of human serum protein binding on inhibitory activity” value in data set [1] is on record as “relatively unaffected”.

Usually pIC50 stands for −log10 of the IC50, conventionally taken in molar units. Usually inhibition stands for how much of the control response was suppressed.
